Results taken from US12139477B2, “Compounds, salts thereof and methods for treatment of diseases” (ACADIA PHARMACEUTICALS INC., priority 2017, dated 2024).

Key:
[1] = biological target: 5HT2A (Homo sapiens, UniProt P28223); experiment: Beta-arrestin recruitment assay (Tango technology, antagonist mode); format: cell-based; design: engineered protease cleavage site followed by tethered transcription factor (C); details: read-out: 5HT2A (pIC50) Beta-arrestin (converted)
Source text: Beta-Arrestin Recruitment Assay:
Detecting GPCR Signaling Using the Tango Technology
GPCR signaling through beta-arrestin was detected by the Tango Technology at Thermofisher. This technology is based upon the interaction of intracellular beta-arrestin proteins and the target receptor. Upon ligand binding to the target receptor, the protease tagged arrestin is stimulated and recruited to the engineered protease site on the C-terminus of the GPCR, which triggers release of the tethered transcription factor. The free transcription factor then enters the nucleus and stimulates the beta-lactamase (bla) activity.
Test compounds are received at 1000× (or greater) of the desired starting concentration in 100% DMSO. The 1000× test compounds are serially diluted (10 point […] increments) in 100% DMSO.
Antagonist Assay Protocol:
An Agonist assay screen (see above) is run to obtain the EC80 concentration of the known activator to add in step 3.
1. 32 μL of cells diluted in Assay Media to appropriate cell density are added to the assay plate. If needed, cells are incubated at 37° C./5% CO2 for 6 or 16-24 hours (depending upon cell line specifics) before compound is added.
2. 40 nL of 1000× compound or known antagonist titration plus 4 μL of Assay Media is added to the cells in the assay plate and incubated for 30 minutes at 37° C./5% CO2 in a humidified incubator.
3. 4 μL of the 10×EC80 concentration of agonist, as determined in an Agonist assay, is added to all wells containing test compound and known inhibitor to bring the final assay volume to 40 μL.
4. 4 μL of Assay Media is added to remaining control wells to bring the volume up to 40 μL.
5. The assay plate is incubated for 5 or 16 hours (depending upon cell line specifics) at 37° C./5% CO2 in a humidified incubator.
6. 8 μL of the Substrate Loading Solution is added to the assay plate.
7. The assay plate is incubated for 2 hours at room temperature, in the dark.
8. The assay plate is read on a fluorescence plate reader (Tecan Safire2) and the data is analyzed.
SelectScreen Cell-Based GPCR Profiling Service uses XLfit from IDBS. The dose response curve is curve fit to model number 205 (sigmoidal dose-response model). Custom logic was built in-house for the data analysis tool to address the different compound characteristics that can be observed with functional assays. Using this logic the relative EC50/IC50 value for each given compound is provided.

[2] = biological target: T1, hERG channel (Homo sapiens, UniProt Q12809); experiment: hERG assay, whole cell recordings in CHO cells (AVIVA); format: cell-based; details: CHO cells stably expressing hERG, pH 7.4
T1 construct: host or cells: CHO cells, stably transfected
T1 sequence (Q12809 whole entry): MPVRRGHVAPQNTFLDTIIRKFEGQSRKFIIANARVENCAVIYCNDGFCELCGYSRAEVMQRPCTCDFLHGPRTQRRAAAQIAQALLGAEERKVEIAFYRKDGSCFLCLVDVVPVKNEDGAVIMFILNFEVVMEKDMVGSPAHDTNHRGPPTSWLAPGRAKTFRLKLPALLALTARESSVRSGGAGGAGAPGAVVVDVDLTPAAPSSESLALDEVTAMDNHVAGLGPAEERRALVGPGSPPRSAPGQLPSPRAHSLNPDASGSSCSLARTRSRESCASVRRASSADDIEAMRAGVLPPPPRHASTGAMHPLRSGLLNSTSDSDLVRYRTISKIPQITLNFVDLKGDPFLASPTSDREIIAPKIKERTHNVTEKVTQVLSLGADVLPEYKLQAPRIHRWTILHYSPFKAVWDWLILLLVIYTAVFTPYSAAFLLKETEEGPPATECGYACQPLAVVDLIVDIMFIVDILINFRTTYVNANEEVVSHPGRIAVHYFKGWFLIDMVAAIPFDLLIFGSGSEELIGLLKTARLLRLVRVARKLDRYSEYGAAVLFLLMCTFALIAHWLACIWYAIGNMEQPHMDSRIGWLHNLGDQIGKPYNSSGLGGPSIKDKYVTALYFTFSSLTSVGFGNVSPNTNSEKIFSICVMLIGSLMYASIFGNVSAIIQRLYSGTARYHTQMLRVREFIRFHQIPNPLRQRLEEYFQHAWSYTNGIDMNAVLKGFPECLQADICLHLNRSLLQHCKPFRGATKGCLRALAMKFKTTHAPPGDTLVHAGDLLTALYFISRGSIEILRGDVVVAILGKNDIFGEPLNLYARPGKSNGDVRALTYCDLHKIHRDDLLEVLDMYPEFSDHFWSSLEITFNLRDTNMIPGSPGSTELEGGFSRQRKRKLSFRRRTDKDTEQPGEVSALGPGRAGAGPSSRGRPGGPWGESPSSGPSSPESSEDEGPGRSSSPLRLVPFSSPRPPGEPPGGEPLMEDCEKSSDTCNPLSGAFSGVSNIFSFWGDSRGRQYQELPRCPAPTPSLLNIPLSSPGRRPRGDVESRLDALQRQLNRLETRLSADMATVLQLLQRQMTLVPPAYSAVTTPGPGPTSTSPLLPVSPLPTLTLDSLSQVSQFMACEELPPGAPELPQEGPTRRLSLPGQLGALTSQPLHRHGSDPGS
Method: The most common mechanism for these adverse events is the inhibition of one or more cardiac potassium channels, in particular hERG. This current is important for cardiac myocyte repolarization and is a common target for drugs that prolong the QT interval. Test articles in this study were therefore characterized to determine their ability to inhibit the hERG channel. Ion channel activity was measured at AVIVA Biosciences Corporation (San Diego, CA), using a stably transfected Chinese Hamster Ovary (CHO) cell line expressing the hERG mRNA.
Cells: AVIVA's CHO cell line, which stably expresses hERG channels, was used for the study. Cells were cultured in DMEM/F12 containing 10% FBS, 1% penicillin/streptomycin and 500 μg/ml G418. Before testing, cells were harvested using Accumax (Innovative Cell Technologies).
Solutions: For electrophysiological recordings, the following solutions were used: External Solution: 2 mM CaCl2); 2 mM MgCl2; 4 mM KCl; 150 mM NaCl; 10 mM Glucose; 10 mM HEPES; 305-315 mOsm; pH 7.4 (adjusted with 5M NaOH); Internal Solution: 140 mM KCl; 10 mM MgCl2; 6 mM EGTA; 5 mM HEPES-Na; 5 mM ATP-Mg; 295-305 mOsm; pH 7.25 (adjusted with 1M KOH).
Electrophysiology: Whole cell recordings were performed using PX 7000A (Axon Instruments) with AVIVA's SealChip™ technology. Cells were voltage clamped at a holding potential of −80 mV. The hERG current was then activated by a depolarizing step to −50 mV for 300 ms. This first step at −50 mV was used as a baseline for measuring peak amplitude of the tail current. Next, a voltage step to +20 mV was applied for 5 s to activate the channels. Finally, a step back to −50 mV for 5 s removed activation and the deactivating tail current was recorded.
Test Article Handling and Dilutions: All test articles were prepared from 10 mM DMSO stock solutions provided by Sponsor. Solutions were mixed by sonication for 20 min, followed by vigorous vortexing. Prior to testing, compounds were diluted to test concentrations in glass vials using External Solution. Dilutions were prepared no longer than 20 min prior to use.
Electrophysiology Procedures: After achieving whole cell configuration, cells were monitored for 90 s to assess stability and then washed with External Solution for 66 s. The voltage protocol previously described was then applied to the cells every 12 s throughout the procedure. Only stable cells with recording parameters above threshold (see Quality Control section) were allowed to enter the drug addition procedure. External solution containing 0.1% DMSO (vehicle) was applied to the cells to establish a baseline. […] Test article solutions were added to cells in 4 separate additions. Cells were kept in test solution until effect of the test article reached steady state, to a maximum of 12 min. Next, 1 μM cisapride (positive control) was added. Finally, washout with External Solution was performed until the recovery current reached steady state.
Data Analysis: Data analysis was performed using DataXpress (Axon Instruments), Clampfit (Axon Instruments) and Origin (OriginLab Corporation) software.

[3] = biological target: hERG potassium channel (Homo sapiens, UniProt Q12809); experiment: in vitro; details: human, pH 7.4
Sequence of hERG potassium channel (Q12809 whole entry): as above
Method: Each cell acted as its own control.
Temperature was measured using a thermistor probe in the recording chamber.

[4] = biological target: hCav1.2/β2/α2δ channels (Homo sapiens, UniProt Q13936); experiment: CaV1.2 manual patch clamp, CHO cells (CR-CLE); format: cell-based; details: 0.1 μM, positive control, previous results, read-out: inhibition of hCav1.2 current
Source text: Stocks were maintained in cryogenic storage. […] Each culture dish was identified by a notation of channel name, passage number, and date.
Rationale for Selection of Ion Channel and Expression Systems: Reduction of ICa,L is associated with action potential shortening in atrial fibrillation (Van Wagoner, et al., Circ Res 85:428-436 (1999)) while augmentation of ICa,L current may produce action potential prolongation (Ahmmed, et al., Circ Res 86:558-570 (2000)) and early after depolarizations (January, et al., Circ Res 62:563-571 (1988)). ICa.L is produced by the combination of calcium channel subunits encoded by CACNA1C (α1-subunit), CACNB2 (β2-subunit) and CACNA2D1 (α2δ-subunit) cDNAs.
• Organism: Cricetulus griseus • Tissue: Ovary; transfected with human CACNA1C • (α1-subunit), CACNB2 (β2-subunit), and • CACNA2D1 (α2δ-subunit) cDNAs • Morphology: Epithelial • Age/Stage: Adult • Source Strain: ATCC, Manassas, VA • Source Substrain: CR-CLE
CHO Cell Culture Procedures: CHO cells were stably co-transfected with human CACNA1C (α1-subunit), CACNB2 (β2-subunit), and CACNA2D1 (α2δ-subunit) cDNAs. Stable transfectants were selected by coexpression of the cDNAs with antibiotic resistance genes for blasticidin, hygromycin, G418, and zeocin. Selection pressure was maintained by including these antibiotics in the culture medium. Cells were cultured in Ham's F12 Medium supplemented with 10% fetal bovine serum, penicillin-streptomycin (100 units/mL), blasticidin (10 μg/mL), zeocin (400 μg/mL), G418 (250 μg/mL) and hygromycin (250 μg/mL). To avoid Ca^2+-induced toxicity, verapamil (3 μmol/L) was added to the cultured cells.
hCav1.2/β2/α2δ-CHO is a tetracycline-inducible cell line. To induce expression, tetracycline at a final concentration of 1 μg/mL was added to media lacking the selection antibiotics. Currents were recorded greater than 16 hours post-induction.
Treatment Groups: All experiments were performed at room temperature. Each cell acted as its own control.
Each concentration was tested in at least three cells (n≥3).
Positive Control Group: The positive control article nifedipine (Sigma-Aldrich) was tested in two cells (n=2) at 0.1 μM. Previous results have shown that nifedipine at 0.1 μM inhibits hCav1.2 current by approximately 90%.
Electrophysiological Procedures: Cells were superfused with vehicle control solution. Micropipette solution for whole cell patch clamp recordings was composed of (mM): Cs-methanesulfonate (MES), 130; TEA-Cl, 20, MgCl2, 1; EGTA, 10; Mg-ATP, 4; Tris-GTP, 0.3, phosphocreatine di-(Tris) salt, 14, creatine phosphokinase, 50 U/mL, and HEPES, 10; pH adjusted to 7.2 with N-methyl-D-glucamine or CsOH. Micropipette solution was prepared in batches, aliquoted, stored frozen, and a fresh aliquot thawed each day. […] Before digitization, current records were low-pass filtered at one-fifth of the sampling frequency.
Experimental Procedures: Onset and steady inhibition was evaluated at a test potential of 0 mV (150 ms duration), repeated at ten-second intervals from a holding potential of −40 mV. Peak current was measured during the step to 0 mV. Peak current was monitored until a new steady state was achieved. hCav1.2 current was monitored until a new steady state was achieved and a steady state was maintained for at least 20 s before applying test article or positive control article formulations. […]
Nonlinear least squares fits were solved with the Solver add-in for Excel 2003 or later (Microsoft, Redmond, WA) and the IC50 was calculated.

Sequence of 5HT2A (P28223 whole entry): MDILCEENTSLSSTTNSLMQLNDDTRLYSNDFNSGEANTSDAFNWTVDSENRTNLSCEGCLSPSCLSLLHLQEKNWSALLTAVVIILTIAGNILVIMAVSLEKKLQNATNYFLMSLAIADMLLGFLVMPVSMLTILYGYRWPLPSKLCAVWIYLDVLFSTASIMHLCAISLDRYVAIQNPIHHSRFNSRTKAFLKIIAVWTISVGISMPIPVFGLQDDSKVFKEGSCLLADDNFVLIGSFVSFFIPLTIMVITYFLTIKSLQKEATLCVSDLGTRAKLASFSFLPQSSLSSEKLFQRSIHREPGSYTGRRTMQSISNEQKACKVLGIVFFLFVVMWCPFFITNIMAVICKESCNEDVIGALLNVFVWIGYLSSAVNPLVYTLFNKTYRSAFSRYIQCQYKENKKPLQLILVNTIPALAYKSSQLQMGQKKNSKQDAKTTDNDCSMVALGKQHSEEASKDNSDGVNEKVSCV

Row | SMILES | IC50 [1] | inhibition at 1 µM [2] | inhibition at 0.09 µM [3] | inhibition at 0.1 µM [4]
1 | CN1CCC(N(Cc2ccc(F)cc2F)C(=O)NCc2ccc3c(c2)CCN3C)CC1 [Example 23] | 15.8 nM | 13% | – | –
2 | Cc1noc2cc(CNC(=O)N(Cc3ccc(F)cc3F)C3CCN(C)CC3)ccc12 [Example 24] | 126 nM | 10% | – | –
3 | Cc1cc2cc(CNC(=O)N(Cc3ccc(F)cc3F)C3CCN(C)CC3)ccc2[nH]1 [Example 36] | 25.1 nM | 29% | – | –
4 | CN1CCC(N(Cc2ccc(F)cc2F)C(=O)NCc2ccc3c(c2)CCS3(=O)=O)CC1 [Example 37] | 631 nM | 8% | – | –
5 | CN1CCC(N(Cc2ccc(F)cc2F)C(=O)NCc2ccc3c(c2)CCC3)CC1 [Example 38] | 3.98 nM | – | – | –
6 | CN1CCC(N(Cc2ccc(F)cc2F)C(=O)NCc2ccc3ncsc3c2)CC1 [Example 39] | 15.8 nM | 21% | – | –
7 | Cc1n[nH]c2ccc(CNC(=O)N(Cc3ccc(F)cc3F)C3CCN(C)CC3)cc12 [Example 42] | 251 nM | – | – | –
8 | CC(C)Oc1ccc(CNC(=O)N(Cc2ccc(C#N)cc2F)C2CCN(C)CC2)cc1 [Example 43] | 126 nM | 42% | – | –
9 | CC(C)Oc1ccc(CNC(=O)N(Cc2ccc([N+](=O)[O-])cc2F)C2CCN(C)CC2)cc1 [Example 44] | 158 nM | 70% | – | –
10 | O=C(O)C(F)(F)F.[2H]C([2H])([2H])C(N1CCC(N(Cc2ccc(F)cc2F)C(=O)NCc2ccc(OC(C)C)cc2)CC1)C([2H])([2H])[2H] [Example 75, 1-[(2,4-difluorophenyl)methyl]-1-{1-[(1,1,1,3,3,3-^2H6)propan-2-yl]piperidin-4-yl}-3-{[4-(propan-2-yloxy)phenyl]methyl}urea; Trifluoroacetic Acid] | 3.98 nM | – | – | –
11 | COc1cc(N)c(Cl)cc1C(=O)NC1CCN(CCCOc2ccc(F)cc2)CC1OC (stereo not shown) [cisapride, reference compound] | – | – | ~80% | –
12 | COC(=O)C1=C(C)NC(C)=C(C(=O)OC)C1c1ccccc1[N+](=O)[O-] [nifedipine, reference compound] | – | – | – | ~90%
